The source of these data is article PMC2951065 (Journal of Medicinal Chemistry, 2010).

The term IC50 denotes the midpoint of a concentration-inhibition curve. Read a high IC50 as lower potency.

The target in data set [1] is T1, phosphatase domain of PHLPP2 (Homo sapiens, UniProt Q6ZVD8).
T1 sequence (Q6ZVD8 785-1033 limits assumed): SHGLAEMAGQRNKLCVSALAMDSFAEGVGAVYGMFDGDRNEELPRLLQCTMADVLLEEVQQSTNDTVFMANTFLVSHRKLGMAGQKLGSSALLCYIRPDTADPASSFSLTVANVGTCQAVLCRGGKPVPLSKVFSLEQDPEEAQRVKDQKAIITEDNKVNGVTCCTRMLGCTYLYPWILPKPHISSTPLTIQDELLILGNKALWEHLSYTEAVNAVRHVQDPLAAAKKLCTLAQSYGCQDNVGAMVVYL
The data set can be described thus: In vitro inhibition of PHLPP2 phosphatase domain, pNPP as substrate. It counts as biochemical. Conditions: for mechanism (type) of inhibition: with respect to pNPP.

The subject of data set [2] is COS 7 cells. The data set can be described thus: Agonist. It counts as cell-based.
In the next data set the target is PP2B/calcineurin (Homo sapiens, UniProt Q08209). The data set is described as follows: Selectivity toward other phosphatases: PP2B, pNPP. It counts as biochemical.
Chain of PP2B/calcineurin (P63098 whole entry, other chains not shown): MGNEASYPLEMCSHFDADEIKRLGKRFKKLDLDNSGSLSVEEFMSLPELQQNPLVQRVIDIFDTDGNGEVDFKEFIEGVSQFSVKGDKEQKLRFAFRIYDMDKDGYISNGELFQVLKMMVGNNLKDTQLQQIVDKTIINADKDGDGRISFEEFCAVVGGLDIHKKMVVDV
The target of another data set is T2, PP2Cα (Homo sapiens, UniProt P35813).
T2 sequence (P35813 1-382): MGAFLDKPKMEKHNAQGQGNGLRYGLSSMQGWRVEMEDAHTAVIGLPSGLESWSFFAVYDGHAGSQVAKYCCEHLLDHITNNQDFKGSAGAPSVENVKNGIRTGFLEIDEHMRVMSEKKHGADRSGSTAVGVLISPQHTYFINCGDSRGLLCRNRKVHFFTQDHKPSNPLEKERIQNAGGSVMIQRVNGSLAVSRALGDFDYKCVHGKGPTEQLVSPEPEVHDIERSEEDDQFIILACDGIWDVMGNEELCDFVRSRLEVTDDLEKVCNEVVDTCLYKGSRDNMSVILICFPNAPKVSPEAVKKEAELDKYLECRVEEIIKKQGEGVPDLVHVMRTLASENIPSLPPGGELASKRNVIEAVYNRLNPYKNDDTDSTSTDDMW
The data set can be described thus: Selectivity toward other phosphatases: PP2Cα, pNPP. It counts as biochemical.

Another data set concerns the target PP1 (Oryctolagus cuniculus, UniProt P62139). The data set is described as follows: Selectivity toward other phosphatases: PP1, pNPP. It counts as biochemical.
The subject of data set [3] is COS 7 cells. It counts as cell-based.
The subject of data set [4] is COS 7 cells. The data set can be described thus: Apoptosis assay: etoposide-induced cell death, Trypan Blue exclusion. The following applies: for etoposide-induced increase in apoptotic cells: COS 7, 0.1% FBS.
A short description of data set [5]: Precipitation in cell culture medium. It counts as physicochemical.
Setting [6] is: highest concentration tested (100 μM).
[7] abbreviates: 10-fold higher concentration than 10 μM.
The mark [8] stands for this setting: 50 μM pretreatment 30 min, etoposide 24 h.

Counter-ions that a name gives are not always drawn.

Chain of PP1 (P62139 whole entry): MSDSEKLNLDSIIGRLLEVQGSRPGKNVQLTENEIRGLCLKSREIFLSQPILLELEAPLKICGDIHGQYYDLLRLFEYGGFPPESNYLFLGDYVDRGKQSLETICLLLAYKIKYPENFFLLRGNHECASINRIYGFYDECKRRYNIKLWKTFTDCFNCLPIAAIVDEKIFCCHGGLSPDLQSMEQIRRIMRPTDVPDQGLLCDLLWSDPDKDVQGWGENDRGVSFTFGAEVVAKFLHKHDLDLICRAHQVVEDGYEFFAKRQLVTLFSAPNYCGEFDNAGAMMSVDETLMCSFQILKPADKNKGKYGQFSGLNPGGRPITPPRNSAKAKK

As to `Nc1c(S(=O)(=O)O)cc(Nc2cccc(S(N)(=O)=O)c2)c2c1C(=O)c1ccccc1C2=O` [Compound 1, 1-amino-9,10-dioxo-4-(3-sulfamoylanilino)anthracene-2-sulfonic acid, sodium salt], the IC50 in data set [1] was 5.45 ± 0.05 µM; against PP2Cα, roughly 100 µM; against PP1, roughly 100 µM. Moreover, the “selectivity for PHLPP over the other phosphatases tested” value in data set [1] (vs PP1, PP2B, PP2Cα) is “over an order of magnitude”. The “mechanism (type) of inhibition” value in [1] is given as “noncompetitive”. In addition, the “phosphorylation of Akt on Ser 473” value in the data set with HT29 cells (HT29, 5% FBS, 24 h, 100 or 250 μM) was “increased Akt phosphorylation and activity in cells”. Moreover, the “phosphorylation of downstream substrates GSK3 α/β (Ser21/9) and FoxO1/3α (Thr 24/32); Akt activity” value (shortened to “phosphorylation … Akt activity”) in the data set with HT29 cells (HT29, 24 h, 100 or 250 μM) was “corresponding increases”. For the same compound, the “EGF-evoked increase in p308 phosphorylation” value in the data set with COS 7 cells [2] (50 μM pretreatment, then EGF) is recorded as “approximately 6 fold”. In addition, in the data set on COS 7 cells [2] (50 μM, 35 min pretreatment, serum-starved COS 7), the “basal phosphorylation at Ser473 compared with DMSO” value is given as “significantly higher”. Further, the “effect on PP2B activity” value on PP2B/calcineurin (10 μM compound) is on record as “no significant effect”; at PP2B/calcineurin (setting [6]), “neither molecule affected the activity”. For the same compound, the “effect on PP2Cα activity” value at PP2Cα (10 μM compound) is “no significant effect”. Besides, the “inhibition of PP2Cα” value on PP2Cα (setting [7]) is listed as “approximately 50%”. Also, the “effect on PP1 activity” value on PP1 (10 μM compound) is “no significant effect”. At PP1 (setting [7]), the “inhibition of PP1” value is listed as “approximately 50%”. Besides, the “selectivity for Ser473 compared to Thr308” value in the data set with COS 7 cells [3] is given as “almost 1 order of magnitude”. Besides, the “increase in the phosphorylation of Ser473 (basal Akt)” value in the data set on COS 7 cells [3] (serum-starved COS 7, 35 min) is “approximately 6 fold”. Further, in the data set with COS 7 cells [4] (50 μM compound, no etoposide), the “basal level of apoptotic cells” value is listed as “approximately 12%”. The “reduction of the magnitude of the etoposide-induced increase in apoptotic cells” value in the data set with COS 7 cells [4] (setting [8]) is “approximately 30%”. The “etoposide-induced increase in apoptotic cells” value in the data set with COS 7 cells [4] (setting [8]) is on record as 2.6 ± 0.3 fold. The “concentration at which compound tends to precipitate in the cell culture medium” value in data set [5] was greater than 300 µM.

Consider `COc1ccc(NCc2c(O)ccc3ccccc23)cc1` [Compound 2], for which the “mechanism (type) of inhibition” value in [1] is “Noncompetitive”.

On to `COc1cc(NCCC2CCCCN2)c2ncccc2c1` (stereo not drawn) [Compound 4], for which the “mechanism (type) of inhibition” value in data set [1] was “uncompetitive”. In addition, in the data set on HT29 cells (HT29, 24 h), the toxicity to cells result is recorded as “induced cells to detach from culture dishes, reflecting toxicity”. Further, the “phosphorylation … Akt activity” value in the data set with HT29 cells (HT29, 24 h, 100 or 250 μM) was “corresponding increases”.

In the case of `NS(=O)(=O)c1ccc(/N=N/c2ncccc2O)cc1` [Compound 7], in data set [1], the “mechanism (type) of inhibition” value is “Competitive”.

As for `Cc1cc(/N=N/c2ccc(/N=N/c3ccc(O)c(C(=O)O)c3)cc2)c(N)cc1N` [Compound 13, 1,3-[[4-(2,4-diamino-5-methylphenyl)diazenylphenyl]hydrazinylidene]-6-oxocyclohexa-1,4-diene-1-carboxylic acid], the “mechanism (type) of inhibition” value in [1] is on record as “noncompetitive”. Moreover, the “effect on PP2B activity” value on PP2B/calcineurin (setting [6]) is given as “neither molecule affected the activity”. The IC50 against PP2Cα and at PP1 was roughly 100 µM in each case. Further, the “modulation of Ser473 phosphorylation” value in the data set with COS 7 cells [3] (cells grown in serum, data not shown) is given as “considerably less effective”. Further, in the data set with COS 7 cells [3] (serum-starved COS 7, 35 min), the “increase in the phosphorylation of Ser473 (basal Akt)” value is listed as “approximately 4 fold”. Moreover, the “sensitivity of phosphorylation of Akt on Thr308 compared with Ser473” value in the data set on COS 7 cells [3] (serum-starved COS 7, 35 min) is reported as “not significantly different”. Further, the “effect on etoposide-induced increase in apoptotic cells” value in the data set with COS 7 cells [4] (setting [8]) is reported as “essentially abolished”.

As to `COc1ccc2nc3cc(Cl)ccc3c(Nc3ccc(C(=O)O)cc3)c2c1` [Compound 24], the “phosphorylation … Akt activity” value in the data set with HT29 cells (HT29, 24 h, 100 or 250 μM) was “corresponding increases”.

Regarding `COc1cc([C@@H]2c3cc4c(cc3[C@@H](O[C@@H]3O[C@@H]5CO[C@@H](C)O[C@H]5[C@H](O)[C@H]3O)[C@H]3COC(=O)[C@H]23)OCO4)cc(OC)c1O` [Etoposide, etoposide, reference compound], the “etoposide-induced increase in apoptotic cells” value in the data set on COS 7 cells [4] (setting [8]) was 3.4 ± 0.4 fold.
